From patent US4725683A, “Fluorophenoxyphenoxypropionates and derivatives thereof” (The Dow Chemical Company, priority 1985, dated 1988)

Columns and labels:
Assay in all cases: Selective postemergence, track sprayer
Assay type in all cases: in vivo
Annual Rye = tested on: Annual Rye
Procedure, shortened: (§1)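 Each pot, with plants near 10 cm in height, was sprayed using a track sprayer set to deliver dosages in 280.6 L/hectare of water plus 0.1% Tween-20. After two weeks under growth-favourable conditions, plants were scored from 0 (no effect) to 100 (complete kill).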

Barley = tested on: Barley
Procedure, shortened: as §1

Bermudagrass = tested on: Bermudagrass
Procedure, shortened: as §1

Blackgrass = tested on: Blackgrass
Procedure, shortened: as §1

Canarygrass = tested on: Canarygrass
Procedure, shortened: as §1

Red Top = tested on: Red Top
Procedure, shortened: as §1

Tall Fescue = tested on: Tall Fescue
Procedure, shortened: as §1

Yellow Foxtail = tested on: Yellow Foxtail
Procedure, shortened: as §1

## COC(=O)C(C)Oc1ccc(Oc2ccc(Br)cc2F)cc1 (racemic) [Example 4-Bromo-, 2-[4-(4-bromo-2-fluorophenoxy)phenoxy]propionic acid methyl ester]
Annual Rye; 0.0011 kgs/hectare
  Percent Control: 0%
Annual Rye; 0.0023 kgs/hectare
  Percent Control: 0%
Annual Rye; 0.0045 kgs/hectare
  Percent Control: 0%
Annual Rye; 0.009 kgs/hectare
  Percent Control: 20%
Annual Rye; 0.035 kgs/hectare
  Percent Control: 40%
Annual Rye; 0.07 kgs/hectare
  Percent Control: 100%
Annual Rye; 0.14 kgs/hectare
  Percent Control: 100%
Annual Rye; 0.28 kgs/hectare
  Percent Control: 100%
Annual Rye; 0.56 kgs/hectare
  Percent Control: 100%
Barley; 0.0011 kgs/hectare
  Percent Control: 0%
Barley; 0.0023 kgs/hectare
  Percent Control: 0%
Barley; 0.0045 kgs/hectare
  Percent Control: 0%
Barley; 0.009 kgs/hectare
  Percent Control: 0%
Barley; 0.018 kgs/hectare
  Percent Control: 0%
Barley; 0.035 kgs/hectare
  Percent Control: 0%
Barley; 0.07 kgs/hectare
  Percent Control: 0%
Barley; 0.14 kgs/hectare
  Percent Control: 10%
Barley; 0.28 kgs/hectare
  Percent Control: 20%
Barley; 0.56 kgs/hectare
  Percent Control: 50%
Bermudagrass; 0.0011 kgs/hectare
  Percent Control: 0%
Bermudagrass; 0.0023 kgs/hectare
  Percent Control: 0%
Bermudagrass; 0.0045 kgs/hectare
  Percent Control: 0%
Bermudagrass; 0.009 kgs/hectare
  Percent Control: 20%
Bermudagrass; 0.035 kgs/hectare
  Percent Control: 90%
Bermudagrass; 0.07 kgs/hectare
  Percent Control: 95%
Bermudagrass; 0.14 kgs/hectare
  Percent Control: 90%
Bermudagrass; 0.28 kgs/hectare
  Percent Control: 100%
Bermudagrass; 0.56 kgs/hectare
  Percent Control: 100%
Blackgrass; 0.0011 kgs/hectare
  Percent Control: 30%
Blackgrass; 0.0023 kgs/hectare
  Percent Control: 50%
Blackgrass; 0.0045 kgs/hectare
  Percent Control: 50%
Blackgrass; 0.009 kgs/hectare
  Percent Control: 100%
Blackgrass; 0.035 kgs/hectare
  Percent Control: 100%
Blackgrass; 0.07 kgs/hectare
  Percent Control: 100%
Blackgrass; 0.14 kgs/hectare
  Percent Control: 100%
Blackgrass; 0.28 kgs/hectare
  Percent Control: 100%
Blackgrass; 0.56 kgs/hectare
  Percent Control: 100%
Canarygrass; 0.0011 kgs/hectare
  Percent Control: 0%
Canarygrass; 0.0023 kgs/hectare
  Percent Control: 0%
Canarygrass; 0.0045 kgs/hectare
  Percent Control: 0%
Canarygrass; 0.009 kgs/hectare
  Percent Control: 0%
Canarygrass; 0.035 kgs/hectare
  Percent Control: 50%
Canarygrass; 0.07 kgs/hectare
  Percent Control: 100%
Canarygrass; 0.14 kgs/hectare
  Percent Control: 100%
Canarygrass; 0.28 kgs/hectare
  Percent Control: 100%
Canarygrass; 0.56 kgs/hectare
  Percent Control: 100%
Red Top; 0.0011 kgs/hectare
  Percent Control: 0%
Red Top; 0.0023 kgs/hectare
  Percent Control: 0%
Red Top; 0.0045 kgs/hectare
  Percent Control: 0%
Red Top; 0.009 kgs/hectare
  Percent Control: 20%
Red Top; 0.035 kgs/hectare
  Percent Control: 50%
Red Top; 0.07 kgs/hectare
  Percent Control: 80%
Red Top; 0.14 kgs/hectare
  Percent Control: 90%
Red Top; 0.28 kgs/hectare
  Percent Control: 100%
Red Top; 0.56 kgs/hectare
  Percent Control: 100%
Tall Fescue; 0.0011 kgs/hectare
  Percent Control: 0%
Tall Fescue; 0.0023 kgs/hectare
  Percent Control: 10%
Tall Fescue; 0.0045 kgs/hectare
  Percent Control: 20%
Tall Fescue; 0.009 kgs/hectare
  Percent Control: 20%
Tall Fescue; 0.035 kgs/hectare
  Percent Control: 60%
Tall Fescue; 0.14 kgs/hectare
  Percent Control: 90%
Tall Fescue; 0.28 kgs/hectare
  Percent Control: 95%
Tall Fescue; 0.56 kgs/hectare
  Percent Control: 95%
Yellow Foxtail; 0.0011 kgs/hectare
  Percent Control: 0%
Yellow Foxtail; 0.0023 kgs/hectare
  Percent Control: 0%
Yellow Foxtail; 0.0045 kgs/hectare
  Percent Control: 0%
Yellow Foxtail; 0.009 kgs/hectare
  Percent Control: 40%
Yellow Foxtail; 0.035 kgs/hectare
  Percent Control: 80%
Yellow Foxtail; 0.07 kgs/hectare
  Percent Control: 100%
Yellow Foxtail; 0.14 kgs/hectare
  Percent Control: 100%
Yellow Foxtail; 0.28 kgs/hectare
  Percent Control: 100%
Yellow Foxtail; 0.56 kgs/hectare
  Percent Control: 100%

## COC(=O)[C@@H](C)Oc1ccc(Oc2ccc(Br)cc2F)cc1 [4-Bromo-(R-Enantiomer), R enantiomer of 2-[4-(4-bromo-2-fluorophenoxy)phenoxy]propionic acid methyl ester]
Annual Rye; 0.00055 kgs/hectare
  Percent Control: 0%
Annual Rye; 0.0011 kgs/hectare
  Percent Control: 0%
Annual Rye; 0.0023 kgs/hectare
  Percent Control: 0%
Annual Rye; 0.0045 kgs/hectare
  Percent Control: 0%
Annual Rye; 0.009 kgs/hectare
  Percent Control: 20%
Annual Rye; 0.018 kgs/hectare
  Percent Control: 30%
Annual Rye; 0.035 kgs/hectare
  Percent Control: 60%
Annual Rye; 0.07 kgs/hectare
  Percent Control: 70%
Annual Rye; 0.14 kgs/hectare
  Percent Control: 90%
Annual Rye; 0.28 kgs/hectare
  Percent Control: 90%
Barley; 0.00055 kgs/hectare
  Percent Control: 0%
Barley; 0.0011 kgs/hectare
  Percent Control: 0%
Barley; 0.0023 kgs/hectare
  Percent Control: 0%
Barley; 0.0045 kgs/hectare
  Percent Control: 0%
Barley; 0.009 kgs/hectare
  Percent Control: 0%
Barley; 0.018 kgs/hectare
  Percent Control: 0%
Barley; 0.035 kgs/hectare
  Percent Control: 0%
Barley; 0.07 kgs/hectare
  Percent Control: 0%
Barley; 0.14 kgs/hectare
  Percent Control: 0%
Barley; 0.28 kgs/hectare
  Percent Control: 0%
Bermudagrass; 0.00055 kgs/hectare
  Percent Control: 0%
Bermudagrass; 0.0011 kgs/hectare
  Percent Control: 0%
Bermudagrass; 0.0023 kgs/hectare
  Percent Control: 0%
Bermudagrass; 0.0045 kgs/hectare
  Percent Control: 20%
Bermudagrass; 0.009 kgs/hectare
  Percent Control: 30%
Bermudagrass; 0.018 kgs/hectare
  Percent Control: 60%
Bermudagrass; 0.035 kgs/hectare
  Percent Control: 90%
Bermudagrass; 0.07 kgs/hectare
  Percent Control: 90%
Bermudagrass; 0.14 kgs/hectare
  Percent Control: 90%
Bermudagrass; 0.28 kgs/hectare
  Percent Control: 95%
Blackgrass; 0.00055 kgs/hectare
  Percent Control: 50%
Blackgrass; 0.0011 kgs/hectare
  Percent Control: 60%
Blackgrass; 0.0023 kgs/hectare
  Percent Control: 60%
Blackgrass; 0.0045 kgs/hectare
  Percent Control: 60%
Blackgrass; 0.009 kgs/hectare
  Percent Control: 80%
Blackgrass; 0.018 kgs/hectare
  Percent Control: 100%
Blackgrass; 0.035 kgs/hectare
  Percent Control: 100%
Blackgrass; 0.07 kgs/hectare
  Percent Control: 100%
Blackgrass; 0.14 kgs/hectare
  Percent Control: 100%
Blackgrass; 0.28 kgs/hectare
  Percent Control: 100%
Canarygrass; 0.00055 kgs/hectare
  Percent Control: 0%
Canarygrass; 0.0011 kgs/hectare
  Percent Control: 0%
Canarygrass; 0.0023 kgs/hectare
  Percent Control: 0%
Canarygrass; 0.0045 kgs/hectare
  Percent Control: 0%
Canarygrass; 0.009 kgs/hectare
  Percent Control: 0%
Canarygrass; 0.018 kgs/hectare
  Percent Control: 0%
Canarygrass; 0.035 kgs/hectare
  Percent Control: 100%
Canarygrass; 0.07 kgs/hectare
  Percent Control: 100%
Canarygrass; 0.14 kgs/hectare
  Percent Control: 100%
Canarygrass; 0.28 kgs/hectare
  Percent Control: 100%
Red Top; 0.00055 kgs/hectare
  Percent Control: 0%
Red Top; 0.0011 kgs/hectare
  Percent Control: 0%
Red Top; 0.0023 kgs/hectare
  Percent Control: 0%
Red Top; 0.0045 kgs/hectare
  Percent Control: 0%
Red Top; 0.009 kgs/hectare
  Percent Control: 0%
Red Top; 0.018 kgs/hectare
  Percent Control: 0%
Red Top; 0.035 kgs/hectare
  Percent Control: 30%
Red Top; 0.07 kgs/hectare
  Percent Control: 90%
Red Top; 0.14 kgs/hectare
  Percent Control: 90%
Red Top; 0.28 kgs/hectare
  Percent Control: 90%
Tall Fescue; 0.00055 kgs/hectare
  Percent Control: 0%
Tall Fescue; 0.0011 kgs/hectare
  Percent Control: 0%
Tall Fescue; 0.0023 kgs/hectare
  Percent Control: 0%
Tall Fescue; 0.0045 kgs/hectare
  Percent Control: 20%
Tall Fescue; 0.009 kgs/hectare
  Percent Control: 50%
Tall Fescue; 0.018 kgs/hectare
  Percent Control: 70%
Tall Fescue; 0.035 kgs/hectare
  Percent Control: 80%
Tall Fescue; 0.07 kgs/hectare
  Percent Control: 90%
Tall Fescue; 0.14 kgs/hectare
  Percent Control: 90%
Tall Fescue; 0.28 kgs/hectare
  Percent Control: 90%
Yellow Foxtail; 0.00055 kgs/hectare
  Percent Control: 0%
Yellow Foxtail; 0.0011 kgs/hectare
  Percent Control: 0%
Yellow Foxtail; 0.0023 kgs/hectare
  Percent Control: 20%
Yellow Foxtail; 0.0045 kgs/hectare
  Percent Control: 20%
Yellow Foxtail; 0.009 kgs/hectare
  Percent Control: 50%
Yellow Foxtail; 0.018 kgs/hectare
  Percent Control: 90%
Yellow Foxtail; 0.035 kgs/hectare
  Percent Control: 100%
Yellow Foxtail; 0.07 kgs/hectare
  Percent Control: 100%
Yellow Foxtail; 0.14 kgs/hectare
  Percent Control: 100%
Yellow Foxtail; 0.28 kgs/hectare
  Percent Control: 100%
